Test results published in PMC9920413, “New Bicyclic Pyridine-Based Hybrids Linked to the 1,2,3-Triazole Unit: Synthesis via Click Reaction and Evaluation of Neurotropic Activity and Molecular Docking” (Molecules, 2023).

Key:
rats [1] = assay: Electroshock retrograde amnesia, conditioned response of passive avoidance (CRPA); assay type: in vivo; details: 1000 mg/kg, study for 5 min
Description: Test for learning and memory. The antiamnesic properties of the compounds were studied using an electroshock amnesia model modified by J. Bures, O. Buresova. In rats, a conditioned passive avoidance reaction (CRPA) to a dark-light setting was developed, while the training of the animals with CRPA was recorded. The residence times in the light and dark compartments were recorded for 5 min (300 s). Then, in the dark compartment, the animal received a single current shock (0.4 mA) through the electrode floor (training). To obtain amnesia, a maximum electroconvulsive seizure is induced in animals (conducting a maximum electric current of 50 Hz for 0.2 s through corneal electrodes). Conducting an electric shock immediately after training causes the erasure of the memory trace. The test for reproduction is carried out 24 h after training—after the development of CRPA. During this period, the control animals forget the training and prefer to be in the dark part of the chamber. An increase in the time spent by rats in the light compartment compared to the control on the second day indicates the presence of antiamnestic properties of the compounds.

in vivo = details: outbred, mouse, in vivo; mice, dead animals after 24 h
Description: (§1) Adverse neurotoxic (muscle relaxant) effects of compounds were studied at doses of 50 to 500 mg/kg when administered intraperitoneally, as well as reference drugs in effect at anticonvulsant doses. Myorelaxation was investigated with the test of a “rotating rod” in mice. To this end, mice were planted on a metal rod with a corrugated rubber coating, which rotated at a speed of 5 revolutions per minute. The number of animals that cnot stay on it for 2 min was determined. To determine the ED50, neurotoxic TD50, and LD50, the statistical method of penetration by Litchfield and Wilcoxon was used.

[2] = tested on: thiosemicarbazide (TSC)-induced convulsions; assay: Thiosemicarbazide (TSC) seizures; assay type: in vivo, mice; details: mice; for response vs control in vivo at 100 mg/kg: Mus musculus, ip, compound 100 mg/kg i.p., relative to control = 1.0, read-out: Latency of Convulsions, Induced by TSC, I (index of latent period of TSC seizures); for Latency of Convulsions, Induced by TSC, M ± M: compound 100 mg/kg i.p. 45 min before TSC 18 mg/kg s.c.
Description: (§2) The study of the anticonvulsant activity of hybrids 7a–u was assessed by evaluating the antagonism to pentylenetetrazole (PTZ), thiosemicarbazide convulsive seizures, and maximal electroshock-induced seizures (MES). The PTZ-induced test is considered an experimental model for the clonic component of epilepsy seizures and the prognostic anxiolytic activity of the compounds. PTZ is a common convulsive agent used in animal models to investigate the mechanisms of seizures. The model of thiosemicarbazide (TSC) seizures (affecting the exchange of GABA) causes clonic seizures similar to pentylenetetrazole ones. The MES test is used as an animal model for the generalization of tonic seizures in epilepsy. The neurotoxicity and side effects of the compounds (movement coordination disorder, myorelaxation, and ataxia) were also studied on mice with the “rotating rod”[29] test.
Thiosemicarbazide, an antimetabolite of GABA inhibitor (glutamic acid decarboxylase) in the brain, is administered subcutaneously to mice at a dose of 18 mg/kg as a 0.5% solution, which causes clonic convulsions in animals. Anti-thiosemicarbazide activity was evaluated based on the latency time of the onset of seizures. Compounds were administered intraperitoneally at doses of 100 mg/kg in suspension with carboxymethylcellulose and Tween-80 45 min before administration of thiosemicarbazide.

[3] = Rotating rod test (neurotoxicity, myorelaxation); assay type: in vivo; details: outbred, mouse, in vivo, ip, mice, myorelaxation in 50% of animals
Description: as §2, §1

rats [4] = assay: Open field test; assay type: in vivo; details: 50 mg/kg i.p.; for Cells Examination, amount (absolute data during 5 min): control 2.4 ± 0.67; for Vertical Displacement, amount (absolute data during 5 min): control 7.0 ± 2.14; for Horizontal Displacement, amount (absolute data during 5 min): control 21.6 ± 2.25
Description: Open field test. The research-motor behavior of rats was studied on a modified “open field” model. For this purpose, an installation was used, the bottom of which is divided into squares with holes (cells). Experiments were performed in the daytime with natural light. Within 5 min of the experiment, the indicators of sedative and activating behavior were determined, namely the number of horizontal movements, standing on the hind legs (vertical movements), and sniffing of the cells. The number of animals on this model was eight for each compound, control, and reference drug.

mouse = assay: Elevated plus maze (EPM) test; assay type: in vivo; details: 50 mg/kg i.p., 5 min; for Time Spent in the Open Arms: control 2.6 ± 1.6; for Number of Entries into the Closed Arms: control 9.4 ± 1.6; for Time Spent in the Center: control 28.2 ± 3.12; for Time Spent in Closed Arms: control 269.2 ± 10.4
Excerpt: Elevated plus maze—EPM test. Anti-anxiety and sedative effects were studied on mouse a model of the “elevated plus maze”. The labyrinth is a cruciform machine raised above the floor, with a pair of open and closed sleeves opposed to each other. Normal animals prefer to spend most of their time in the closed (dark) sleeves of the labyrinth. The anxiolytic effect of the compounds was estimated by the increase in the number of entries into open (light) sleeves and the time spent in them without increasing the total motor activity. This records the time spent in the closed sleeve and the number of attempts to enter the installation center. In the above model, the test compounds and the reference drug were injected intraperitoneally before the experiments. The control animals were administered as an emulsifier. Results were processed statistically (p < 0.05).

mice = assay: Forced swimming test; details: 50 mg/kg, 6 min; for Total Time of Immobilization: control 42.0 ± 7.24; for Total Time of Active Swimming: control 318.0 ± 8.36;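 for all read-outs here: mice made to swim in a water-filled glass vessel under natural light, with durations of active swimming and immobility recorded across the 6 min session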
Description: Forced swimming test. To assess “despair and depression”, the “compelling swimming” model was used. Experimental animals were forced to swim in a glass container (height 22 cm, diameter 14 cm), filled 1/3 with water. […] The latent period of immobilization, the total duration of active swimming and immobilization are fixed at 6 min (the experiments were conducted under natural light).

[5] = tested on: pentylenetetrazole (PTZ)-induced convulsions; assay: Antagonism to pentylenetetrazole (PTZ) convulsions; assay type: in vivo; details: for ED50: Mus musculus, mice, i.p. 45 min before PTZ 90 mg/kg s.c., confidence limits in brackets, p = 0.05, read-out: ED50 (by PTZ antagonism); for TI: therapeutic index TI = LD50/ED50
Description: as §2
The anticonvulsant effect of the newly synthesized compounds was investigated by tests comprising pentylenetetrazole, thiosemicarbazide convulsions, and maximal electroshock (MES). Outbred mice (weight 18–22 g) were used for the study. […] Each animal is placed into an individual plastic cage for observation lasting 1 h. Seizures and clonic convulsions were recorded. […] The control animals were administered as an emulsifier. Every dose of each test compound was studied in six animals.
as §1

Structure (SMILES): NC(=O)CN1CCCC1=O [Piracetam, piracetam, reference compound]
- The Time Spent in the Light Chamber When Playing CRPA + MESH after 24 h, Second Day (rats [1]): 243.7 ± 8.4 s
- The Time Spent in the Light Chamber during the Training of the CRPA, First Day (rats [1]): 158.0 ± 5.9 s

Structure (SMILES): CCc1nc(N2CCN(C(=O)Cn3cc(COc4nc(C(C)C)c5c(c4C#N)CCCC5)nn3)CC2)c(C#N)c2c1COC(C)(C)C2 [7h]
- LD50 at 24 h (in vivo): 720 mg/kg
- response vs control in vivo at 100 mg/kg [2]: 150%
- Latency of Convulsions, Induced by TSC, M ± M [2]: 15.2 ± 1.2 min
- TD50 at 2 min [3]: > 500 mg/kg
- Cells Examination, amount (absolute data during 5 min) (rats [4]): 6.8 ± 3.12
- Vertical Displacement, amount (absolute data during 5 min) (rats [4]): 6.0 ± 0.89
- Horizontal Displacement, amount (absolute data during 5 min) (rats [4]): 63.8 ± 14.02
- Time Spent in the Open Arms (mouse): 30.0 ± 2.4 s
- Number of Entries into the Closed Arms (mouse): 4.8 ± 1.34
- Time Spent in the Center (mouse): 28.4 ± 2.38 s
- Time Spent in Closed Arms (mouse): 246.6 ± 21.9 s
- Total Time of Immobilization (mice): 2.0 ± 0.8 s
- Total Time of Active Swimming (mice): 358.0 ± 8.2 s
- ED50 [5]: 27 mg/kg
- TI [5]: 26.7

Structure (SMILES): CCc1nc(OCc2cn(CC(=O)N3CCN(c4nc(CC)c5c(c4C#N)CC(C)(C)OC5)CC3)nn2)c(C#N)c2c1COC(C)(C)C2 [7q, 6-{4-[(4-{[(5-Cyano-8-ethyl-3,3-dimethyl-3,4-dihydro-1H-pyrano [3,4-c]pyridin-6-yl)oxy]methyl}-1H-1,2,3-triazol-1-yl)acetyl]piperazin-1-yl}-8-ethyl-3,3-dimethyl-3,4-dihydro-1H-pyrano [3,4-c]pyridine-5-carbonitrile]
- LD50 at 24 h (in vivo): 790 mg/kg
- response vs control in vivo at 100 mg/kg [2]: 220%
- Latency of Convulsions, Induced by TSC, M ± M [2]: 22.0 ± 2.2 min
- TD50 at 2 min [3]: > 500 mg/kg
- Cells Examination, amount (absolute data during 5 min) (rats [4]): 7.4 ± 2.42
- Vertical Displacement, amount (absolute data during 5 min) (rats [4]): 8.8 ± 1.61
- Horizontal Displacement, amount (absolute data during 5 min) (rats [4]): 60.2 ± 4.61
- Time Spent in the Open Arms (mouse): 24.0 ± 2.5 s
- Number of Entries into the Closed Arms (mouse): 5.0 ± 2.19
- Time Spent in the Center (mouse): 50.8 ± 3.4 s
- Time Spent in Closed Arms (mouse): 225.2 ± 13.87 s
- Total Time of Immobilization (mice): 24.0 ± 2.9 s
- Total Time of Active Swimming (mice): 336.0 ± 25.3 s
- ED50 [5]: 42 mg/kg
- TI [5]: 18.8

Structure (SMILES): CCCc1nc(N2CCN(C(=O)Cn3cc(COc4nc(CC)c5c(c4C#N)CC(C)(C)OC5)nn3)CC2)c(C#N)c2c1COC(C)(C)C2 [7r, 6-[(1-{2-[4-(5-Cyano-3,3-dimethyl-8-propyl-3,4-dihydro-1H-pyrano [3,4-c]pyridin-6-yl)piperazin-1-yl]-2-oxoethyl}-1H-1,2,3-triazol-4-yl)methoxy]-8-ethyl-3,3-dimethyl-3,4-dihydro-1H-pyrano [3,4-c]pyridine-5-carbonitrile]
- LD50 at 24 h (in vivo): 710 mg/kg
- response vs control in vivo at 100 mg/kg [2]: 394%
- Latency of Convulsions, Induced by TSC, M ± M [2]: 39.4 ± 1.11 min
- TD50 at 2 min [3]: > 500 mg/kg
- Cells Examination, amount (absolute data during 5 min) (rats [4]): 4.4 ± 1.89
- Vertical Displacement, amount (absolute data during 5 min) (rats [4]): 2.2 ± 1.36
- Horizontal Displacement, amount (absolute data during 5 min) (rats [4]): 30.0 ± 2.48
- Time Spent in the Open Arms (mouse): 7.0 ± 2.59 s
- Number of Entries into the Closed Arms (mouse): 3.4 ± 1.59
- Time Spent in the Center (mouse): 83.0 ± 5.1 s
- Time Spent in Closed Arms (mouse): 210.4 ± 10.3 s
- Total Time of Immobilization (mice): 36.0 ± 5.55 s
- Total Time of Active Swimming (mice): 324.0 ± 18.55 s
- ED50 [5]: 26 mg/kg
- TI [5]: 27.3

Structure (SMILES): CCCc1nc(N2CCN(C(=O)Cn3cc(COc4nc(C)c5c(c4C#N)CC(C)(C)OC5)nn3)CC2)c(C#N)c2c1COC(C)(C)C2 [7o]
- LD50 at 24 h (in vivo): 800 mg/kg
- response vs control in vivo at 100 mg/kg [2]: 304%
- Latency of Convulsions, Induced by TSC, M ± M [2]: 30.4 ± 1.1 min
- TD50 at 2 min [3]: > 500 mg/kg
- Cells Examination, amount (absolute data during 5 min) (rats [4]): 8.6 ± 3.25
- Vertical Displacement, amount (absolute data during 5 min) (rats [4]): 9.6 ± 3.89
- Horizontal Displacement, amount (absolute data during 5 min) (rats [4]): 73.0 ± 13.37
- Time Spent in the Open Arms (mouse): 10.0 ± 2.78 s
- Number of Entries into the Closed Arms (mouse): 5.8 ± 1.03
- Time Spent in the Center (mouse): 61.0 ± 3.68 s
- Time Spent in Closed Arms (mouse): 229.0 ± 11.2 s
- Total Time of Immobilization (mice): 2.0 ± 0.4 s
- Total Time of Active Swimming (mice): 358.0 ± 12.0 s
- ED50 [5]: 28 mg/kg
- TI [5]: 28.6

Structure (SMILES): CCCc1nc(N2CCN(C(=O)Cn3cc(COc4nc(C(C)C)c5c(c4C#N)CCC5)nn3)CC2)c(C#N)c2c1COC(C)(C)C2 [7c, 6-{4-[(4-{[(4-Cyano-1-isopropyl-6,7-dihydro-5H-cyclopenta[c]pyridin-3-yl)oxy]methyl}-1H-1,2,3-triazol-1-yl)acetyl]piperazin-1-yl}-3,3-dimethyl-8-propyl-3,4-dihydro-1H-pyrano [3,4-c]pyridine-5-carbonitrile]
- LD50 at 24 h (in vivo): 650 mg/kg
- response vs control in vivo at 100 mg/kg [2]: 250%
- Latency of Convulsions, Induced by TSC, M ± M [2]: 25.0 ± 4.1 min
- TD50 at 2 min [3]: > 500 mg/kg
- Cells Examination, amount (absolute data during 5 min) (rats [4]): 4.2 ± 0.56
- Vertical Displacement, amount (absolute data during 5 min) (rats [4]): 6.2 ± 1.03
- Horizontal Displacement, amount (absolute data during 5 min) (rats [4]): 57.2 ± 12.85
- Time Spent in the Open Arms (mouse): 10.6 ± 2.1 s
- Number of Entries into the Closed Arms (mouse): 2.6 ± 1.4
- Time Spent in the Center (mouse): 45.4 ± 4.7 s
- Time Spent in Closed Arms (mouse): 244.0 ± 10.67 s
- Total Time of Immobilization (mice): 10.0 ± 4.1 s
- Total Time of Active Swimming (mice): 350.0 ± 11.62 s
- ED50 [5]: 35 mg/kg
- TI [5]: 18.6
